pEC50, pIC50: −log10 of the molar value. Several values for one entry are separate records, joined by “and”; a condition that tells them apart may be missing. Equal entries are not always repeated. Where two headings read alike, the source gives them in different places.
Tests used:
SARS-CoV-2 3CL protease = SARS-CoV-2 3CL protease (Severe acute respiratory syndrome coronavirus 2, UniProt P0DTD1); assay: biochemical
SARS-CoV-2 = assay: microbe, parasite or virus in culture; type: cell-based; conditions: for pEC50: Severe acute respiratory syndrome coronavirus 2, VeroE6/TMPRSS2, 72 h, 50% SARS-CoV-2 infected cell death inhibitory concentration, VeroE6/TMPRSS2 cells, 3 days culture; for coronavirus replication inhibitory activity: at concentrations up to 50 μM, tested as in Test Example 1 (Reference Example 1)
[1] = 50% SARS-CoV-2 3CL protease inhibitory concentration, given as class symbols, read-out: IC50
[2] = 50% SARS-CoV-2 3CL protease inhibitory concentration, RapidFire MS, read-out: IC50

Compound | pIC50 (SARS-CoV-2 3CL protease; [1]) | pEC50 (SARS-CoV-2; class symbols) | also measured
O=c1[nH]cccc1Cn1c(=O)nc(Nc2cc3c(cc2Cl)OCC3)n(Cc2cc(F)c(F)cc2F)c1=O [Compound I-0016] | > 7.00 | > 6.00 | –
Cc1cncc(-n2c(=O)nc(Nc3cc4cn(C)nc4cc3Cl)n(Cc3cc(F)c(F)cc3Cl)c2=O)c1 [II-0402] | > 7.00 | > 6.00 | –
C[C@H](O)Cn1cc2cc(Nc3nc(=O)n(Cc4ccc[nH]c4=O)c(=O)n3Cc3cc(F)c(F)c(F)c3)c(Cl)cc2n1 [Compound I-0424] | > 7.00 | 5.00 to 6.00 | –
N#CC1(Cn2cc3cc(Nc4nc(=O)n(Cc5ccc[nH]c5=O)c(=O)n4Cc4cc(F)c(F)c(F)c4)c(Cl)cc3n2)CC1 [II-0412] | > 7.00 | 5.00 to 6.00 | –
Cn1cc2cc(Nc3nc(=O)n(-c4cncc5ccccc45)c(=O)n3Cc3ccc(F)c(C#N)c3)ccc2n1 [Compound I-0353] | – | – | pIC50 (SARS-CoV-2 3CL protease; [2]): 8.27; pEC50 (SARS-CoV-2; CellTiter-Glo 2.0): 6.51
Cn1cnc(Cn2cc3cc(Nc4nc(=O)n(Cc5ncn(C)n5)c(=O)n4Cc4cc(Cl)c(F)cc4F)c(Cl)cc3n2)n1 [II-0003] | – | – | pIC50 (SARS-CoV-2 3CL protease; [2]): 8.22; pEC50 (SARS-CoV-2; CellTiter-Glo 2.0): 4.75
COc1ccc(Nc2nc(=O)n(Cc3ccc[nH]c3=O)c(=O)n2Cc2cc(Cl)ccc2Cl)cc1 [Compound I-0214] | > 7.00 | > 6.00 | –
CC(=O)Nc1nc2cc(Cl)c(Nc3nc(=O)n(Cc4ncn(C)n4)c(=O)n3Cc3cc(F)c(F)cc3F)cc2s1 [II-0560] | > 7.00 | 5.00 to 6.00 | –
Cn1cc2cc(Nc3nc(=O)n(Cc4ncccn4)c(=O)n3Cc3cc(F)c(F)c(Cl)c3)c(Cl)cc2n1 [II-0296] | > 7.00 | > 6.00 | –
Cc1cncc(-n2c(=O)nc(Nc3ccc4nn(CC(F)(F)F)cc4c3)n(Cc3ccc(F)c(C#N)c3)c2=O)c1 [II-0567] | – | – | pIC50 (SARS-CoV-2 3CL protease; [2]): 8.06; pEC50 (SARS-CoV-2; CellTiter-Glo 2.0): 6.19
C=Cc1cc(F)c(F)cc1Cn1c(Nc2cc3cn(C)nc3cc2Cl)nc(=O)n(-c2cncc(C)c2)c1=O [II-0067] | > 7.00 | > 6.00 | –
CNc1nc2ccc(Nc3nc(=O)n(-c4cncc(Cl)c4)c(=O)n3Cc3cc(C#N)ccc3C)cc2s1 [II-0383] | > 7.00 | > 6.00 | –
Cn1cnc(Cn2c(=O)nc(Nc3cc4cn(C)nc4cc3Cl)n(Cc3ccc(F)c(Cl)c3)c2=O)n1 [II-0050] | > 7.00 | > 6.00 | –
Cn1cnc(Cn2c(=O)nc(Nc3cc4cn(C)nc4cc3Cl)n(Cc3cccc(F)c3Cl)c2=O)n1 [II-0214] | > 7.00 | 5.00 to 6.00 | –
Cc1cncc(-n2c(=O)nc(Nc3cc4ccnn4cc3Cl)n(Cc3ccc(F)c(C#N)c3)c2=O)c1 [II-0477] | > 7.00 | 5.00 to 6.00 | –
Cn1cnc(Cn2c(=O)nc(Nc3cc4cn(CC(F)F)nc4cc3F)n(Cc3cc(F)c(F)c(F)c3)c2=O)n1 [II-0112] | > 7.00 | 5.00 to 6.00 | –
N#Cc1cc(Cn2c(Nc3cc4cn(C(F)F)nc4cc3Cl)nc(=O)n(-c3cncc4ccccc34)c2=O)ccc1F [Compound I-0428] | > 7.00 | > 6.00 | –
Cc1cncc(-n2c(=O)nc(Nc3cc4cn(C)nc4cc3Cl)n(Cc3cccc(F)c3F)c2=O)c1 [II-0187] | > 7.00 | > 6.00 | –
Cc1cncc(-n2c(=O)nc(Nc3cc4c(cc3Cl)nc3n4CCN3)n(Cc3cc(Cl)c(F)cc3F)c2=O)c1 [II-0279] | > 7.00 | 5.00 to 6.00 | –
O=c1nc(Nc2cc3cn(CCO)nc3cc2Cl)n(Cc2cc(F)c(F)cc2F)c(=O)n1-c1cncc2ccccc12 [II-0032] | > 7.00 | > 6.00 | –
Cn1cc2cc(Nc3nc(=O)n(-c4cncc(C(F)(F)F)c4)c(=O)n3Cc3cc(F)c(F)c(F)c3)c(Cl)cc2n1 [II-0273] | – | – | pIC50 (SARS-CoV-2 3CL protease; [2]): 6.44; pEC50 (SARS-CoV-2; CellTiter-Glo 2.0): 5.18
Cc1cncc(-n2c(=O)nc(Nc3cc4sc(C)nc4cc3C)n(Cc3ccc(F)c(C#N)c3)c2=O)c1 [II-0191] | > 7.00 | > 6.00 | –
Cn1cnc(Cn2c(=O)nc(Nc3cc4cn(CC5CC5)nc4cc3Cl)n(Cc3cc(F)c(F)cc3F)c2=O)n1 [II-0352] | > 7.00 | > 6.00 | –
Cn1cc2cc(Nc3nc(=O)n(-c4cncc5ccccc45)c(=O)n3Cc3ccc(F)c(C#N)c3)c(F)cc2n1 [Compound I-0429] | > 7.00 | > 6.00 | –
Cn1cc2cc(Nc3nc(=O)n(-c4cncc5c4COC5)c(=O)n3Cc3cc(Cl)c(F)cc3F)c(Cl)cc2n1 [II-0499] | – | – | pIC50 (SARS-CoV-2 3CL protease; [2]): 7.92; pEC50 (SARS-CoV-2; CellTiter-Glo 2.0): 6.17
COc1ccc(Nc2nc(=O)n(-c3cncc4ccccc34)c(=O)n2Cc2cc(F)c(F)c(F)c2)c(Cl)c1 [Compound I-0152] | > 7.00 | > 6.00 | –
Cc1cncc(-n2c(=O)nc(Nc3ccc4nn(CC(F)F)cc4c3)n(Cc3ccc(F)c(C#N)c3)c2=O)c1 [Compound I-0355] | > 7.00 | > 6.00 | pIC50 (SARS-CoV-2 3CL protease; [2]): 8.06; pEC50 (SARS-CoV-2; CellTiter-Glo 2.0): 6.47

Compound | pIC50 (SARS-CoV-2 3CL protease; [1]) | pEC50 (SARS-CoV-2; class symbols) | also measured
CCc1cncc(-n2c(=O)nc(Nc3ccc4nn(C)cc4c3)n(Cc3ccc(F)c(C#N)c3)c2=O)c1 [II-0390] | > 7.00 | 5.00 to 6.00 | –
CC(=O)Nc1nc2cc(Cl)c(Nc3nc(=O)n(-c4cncc(C)c4)c(=O)n3Cc3ccc(F)c(C#N)c3)cc2s1 [II-0555] | > 7.00 | 5.00 to 6.00 | –
Cc1nc2cc(Cl)c(Nc3nc(=O)n(Cc4ncn(C)n4)c(=O)n3Cc3cc(F)c(F)cc3F)cc2o1 [II-0326] | > 7.00 | 5.00 to 6.00 | –
Cc1cncc(-n2c(=O)nc(Nc3cc4sc(NCC(F)F)nc4cc3F)n(Cc3ccc(F)c(C#N)c3)c2=O)c1 [II-0424] | > 7.00 | 5.00 to 6.00 | –
Cn1cnc(Cn2c(=O)nc(Nc3cc4cn(C)nc4cc3F)n(Cc3cc(F)c(F)c(F)c3)c2=O)n1 [II-0064] | > 7.00 | 5.00 to 6.00 | –
Cn1cnc(Cn2c(=O)nc(Nc3cc4cn(C5CCOCC5)nc4cc3Cl)n(Cc3cc(F)c(F)cc3F)c2=O)n1 [II-0102] | > 7.00 | 5.00 to 6.00 | –
Cn1cnc(Cn2c(=O)nc(Nc3cc4cn(Cc5ccccn5)nc4cc3Cl)n(Cc3cc(Cl)c(F)cc3F)c2=O)n1 [II-0005] | > 7.00 | 5.00 to 6.00 | –
CCn1cc2cc(Nc3nc(=O)n(-c4cncc(Cl)c4)c(=O)n3Cc3cc(C#N)c(F)cn3)c(Cl)cc2n1 [II-0127] | > 7.00 | 5.00 to 6.00 | –
Cc1cncc(-n2c(=O)nc(Nc3ccc4nn(C)cc4c3)n(Cc3cc(F)c(F)c(C#N)c3)c2=O)c1 [II-0573] | – | – | pIC50 (SARS-CoV-2 3CL protease; [2]): 8.21; pEC50 (SARS-CoV-2; CellTiter-Glo 2.0): 6.47
Cn1cc2cc(Nc3nc(=O)n(-c4cncc(Cl)c4)c(=O)n3Cc3cc(Cl)c(F)cc3F)ccc2n1 [II-0576] | – | – | pIC50 (SARS-CoV-2 3CL protease; [2]): 7.77; pEC50 (SARS-CoV-2; CellTiter-Glo 2.0): 6.28
Cc1cncc(-n2c(=O)nc(Nc3cc4cn(C)nc4cc3Cl)n(Cc3cc(F)c(F)cc3Cc3ccccc3)c2=O)c1 [II-0094] | > 7.00 | 5.00 to 6.00 | –
Cn1cnc(Cn2c(=O)nc(Nc3cc4sc(NCC(F)F)nc4cc3Cl)n(Cc3cc(F)c(F)cc3F)c2=O)n1 [II-0500] | > 7.00 | 5.00 to 6.00 | –
CC(=O)Nc1nc2cc(Cl)c(Nc3nc(=O)n(-c4cncc(C)c4)c(=O)n3Cc3cc(F)c(F)cc3F)cc2s1 [II-0563] | > 7.00 | 5.00 to 6.00 | –
Cc1cncc(-n2c(=O)[nH]/c(=N\c3cc4cn(C)nc4cc3Cl)n(Cc3cc(F)c(F)c(F)c3)c2=O)c1 [Compound I-0113] | – | – | pEC50 (SARS-CoV-2; CellTiter-Glo 2.0): 6.75
CC(C)Oc1ccc(/N=c2\[nH]c(=O)n(Cc3ccc[nH]c3=O)c(=O)n2Cc2ccc(Cl)cc2)cc1F [Compound I-0685, reference compound] | – | – | coronavirus replication inhibitory activity (SARS-CoV-2): did not show coronavirus replication inhibitory activity
Cc1nc2ccc(/N=c3\[nH]c(=O)n(C[C@H]4COC(C)(C)O4)c(=O)n3Cc3ccc(Cl)cc3)cc2s1 [Compound I-1603, reference compound] | – | – | coronavirus replication inhibitory activity (SARS-CoV-2): did not show coronavirus replication inhibitory activity
CNc1nc2ccc(Nc3nc(=O)n(-c4cncc(Cl)c4)c(=O)n3Cc3ccc(F)c(C#N)c3)cc2s1 [II-0399] | – | > 6.00 | –
CC(C)Oc1ccc(/N=c2\[nH]c(=O)n(Cc3ncn[nH]3)c(=O)n2Cc2ccc(Cl)cc2)cc1F [Compound I-0679, reference compound] | – | – | coronavirus replication inhibitory activity (SARS-CoV-2): did not show coronavirus replication inhibitory activity
Cn1cnc(Cn2c(=O)nc(Nc3cc4cn(C)nc4cc3Cl)n(Cc3cc(F)ccc3F)c2=O)n1 [II-0208] | – | 5.00 to 6.00 | –
O=C(O)c1ccc(Oc2ccc(/N=c3\[nH]c(=O)n(-c4cccs4)c(=O)n3Cc3ccc(Cl)cc3)cc2)nc1 [Compound I-575, reference compound] | – | – | coronavirus replication inhibitory activity (SARS-CoV-2): did not show coronavirus replication inhibitory activity
O=C(O)c1ccc(Oc2ccc(/N=c3\[nH]c(=O)n(-c4ccon4)c(=O)n3Cc3ccc(Cl)cc3)cc2)nc1 [Compound I-580, reference compound] | – | – | coronavirus replication inhibitory activity (SARS-CoV-2): did not show coronavirus replication inhibitory activity
Cc1cncc(-n2c(=O)nc(Nc3cc4cn(C)nc4cc3Cl)n(Cc3cc(F)c(F)cc3F)c2=O)c1 [Compound I-0361] | – | – | pEC50 (SARS-CoV-2; CellTiter-Glo 2.0): 6.88
COc1ncccc1Cn1c(=O)[nH]/c(=N\c2ccc(OC(C)C)c(F)c2)n(Cc2ccc(Cl)cc2)c1=O [Compound I-0683, reference compound] | – | – | coronavirus replication inhibitory activity (SARS-CoV-2): did not show coronavirus replication inhibitory activity
Cc1ccc(Cn2c(=O)nc(Nc3cccc(C(F)(F)F)c3)n(Cc3ccc(Cl)c(Cl)c3)c2=O)cc1 [Compound I-066, reference compound] | – | – | coronavirus replication inhibitory activity (SARS-CoV-2): did not show coronavirus replication inhibitory activity
Cn1cnc(Cn2c(=O)nc(Nc3cc4cn(C)nc4cc3Cl)n(Cc3cc(F)cc4c3OCOC4)c2=O)n1 [II-0211] | – | – | pIC50 (SARS-CoV-2 3CL protease; IC50): > 7.00
Cc1cncc(-n2c(=O)nc(Nc3cc4cn(C)nc4cc3Cl)n(C[C@@H]3CCCN3C(=O)CNC(=O)C(F)(F)F)c2=O)c1 [II-0086] | – | – | pIC50 (SARS-CoV-2 3CL protease; IC50): 5.47
COc1ccc(Nc2nc(=O)n(Cc3cn(CCO)cn3)c(=O)n2Cc2cc(F)c(F)c(F)c2)cc1 [Compound I-0415] | – | – | pIC50 (SARS-CoV-2 3CL protease; IC50): 5.52 and 5.00 to 6.00

From patent publication US12559474B2, “Triazine derivatives having virus replication inhibitory activity and pharmaceutical composition comprising the same” (priority 2021, dated 2026)
